According to PMC3387161, “Small Molecules Targeted to a Non-Catalytic “RVxF” Binding Site of Protein Phosphatase-1 Inhibit HIV-1” (PLoS ONE, 2012):

Tests used:
[1] = tested on: HIV-1 transcription in CEM-GFP cells; test: cells; type: cell-based
[2] = tested on: HIV-1 LTR-Lac Z reporter in 293T cells; test: HIV-1 LTR-directed transcription in 293T cells transfected with Tat vector and HIV-1 LTR-LacZ reporter; type: cell-based; details: Human immunodeficiency virus 1, HEK-293T, read-out: IC50 for inhibition of HIV-1 LTR-directed transcription in 293T cells
[3] = tested on: interaction of Tat with PP1α; type: cell-based, human
[4] = biological target: PP1 association with Tat, NIPP1 and PNUTS (Homo sapiens, UniProt P62136); type: cell-based; details: Tat-transfected 293T cells, LC-MS peak amplitude
Chain of PP1 association with Tat, NIPP1 and PNUTS (P62136 2-330): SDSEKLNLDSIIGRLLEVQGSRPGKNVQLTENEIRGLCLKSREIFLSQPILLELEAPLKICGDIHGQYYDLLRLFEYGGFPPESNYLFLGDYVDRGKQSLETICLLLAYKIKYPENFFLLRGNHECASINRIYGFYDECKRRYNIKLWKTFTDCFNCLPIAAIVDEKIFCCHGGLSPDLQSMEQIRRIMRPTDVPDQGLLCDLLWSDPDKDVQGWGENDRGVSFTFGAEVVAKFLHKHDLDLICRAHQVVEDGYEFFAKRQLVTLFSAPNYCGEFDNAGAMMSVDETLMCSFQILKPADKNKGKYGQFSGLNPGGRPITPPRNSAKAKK

293T cells = test: Cellular proteome analysis by mass spectrometry in 293T cells; type: cell-based, human; details: 10 µM, 18 h, 28 proteins with highest SEQUEST scores
Experimental: To determine if 1H4 has a negative effect on protein expression profiles, we analyzed the global cellular proteome by mass spectrometry. Protein expression was analyzed in 293T cells untreated or treated with 1H4 as described in Materials and Methods. We detected expression of 1722 proteins in the untreated sample and 1739 proteins in the 1H4-treated sample (not shown).
Samples were separated by reversed-phase liquid chromatography (HPLC), using micro-capillary column C18, coupled in line with nanospray and tandem mass spectrometer Thermo LTQ Orbitrap XL. The LC gradient was run for 60 min from 2% to 30% of acetonitrile containing 0.1% formic acid at flow rate 400 nL/min. In single measurement block we performed 1 FT MS scan and 3 data dependent FT MS/MS scans on major multi-charged MS peaks with resolution 30000. The normalized collision-induced dissociation (CID) energy was 35%. The MS/MS spectra were compared against those in the NCBI human protein database. Proteins that were not present in the database, i.e. recombinant Flag-Tat, were manually added to the database. Only peptides having X-correlation (X corr) cutoffs of 1.9 for [M +2H]^2+, 2.3 for [M +3H]^3+ and higher charge state were considered. […]
As a negative control untreated cells were used. […] The MS-MS data were analyzed by SEQUEST.

PP1α = PP1α (Homo sapiens, UniProt P62136); test: Nuclear and cytoplasmic distribution of PP1α-EGFP in HeLa and 293T cells; type: cell-based; set-up: expressed in transfected cells; host or cells: HeLa; 293T
Chain of PP1α (P62136 whole entry): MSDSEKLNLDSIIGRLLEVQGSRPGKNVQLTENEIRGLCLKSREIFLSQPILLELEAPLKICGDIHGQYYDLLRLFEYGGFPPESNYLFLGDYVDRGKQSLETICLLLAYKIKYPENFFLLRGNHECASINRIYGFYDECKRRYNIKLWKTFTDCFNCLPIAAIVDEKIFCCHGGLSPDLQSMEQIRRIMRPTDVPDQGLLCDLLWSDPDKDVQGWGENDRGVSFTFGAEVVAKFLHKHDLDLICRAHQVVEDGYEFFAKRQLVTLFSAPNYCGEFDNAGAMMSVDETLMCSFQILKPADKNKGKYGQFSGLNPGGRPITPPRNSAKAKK
From the text: In live cells, PP1α is dynamically distributed between the cytoplasm and the nucleus, and its shuttling into the nucleus is thought to be regulated by its interaction with sds22 and inhibitor-3 regulatory subunits. […] We analyzed the effect of 1H4 on nuclear localization of PP1α in HeLa cells that were transfected with Flag-Tat and PP1α-EGFP expression vectors and treated with 1H4 or a control compound for 18hrs. In untreated cells, PP1α was localized in the perinuclear area and cytoplasm (Fig. 8A). Co-expression of Tat increased nuclear and perinuclear localization of PP1α (Fig. 8B). Co-expression of mutant Tat ^35QACA^38 in contrast led to a more homogeneous distribution of PP1α (Fig. 8C). […] To achieve quantifiable results, we measured fluorescence of PP1α-EGFP in nuclear and cytoplasmic fractions of 293T cells that were transfected with PP1α-EGFP or PP1α-EGFP and Tat expression vectors and treated with 1H4. […]
Figure 8 1H4 compound disrupts the Tat-mediated translocation of PP1 into the nucleus. […] Fluorescence was measured in the nuclear and cytoplasmic fractions using Perkin-Elmer Luminoscan. […]
Nuclear and cytoplasmic extracts were prepared using a modification of previously described method. […] Fluorescence was measured in cytoplasmic and nuclear lysates at 480 nm excitation and 510 nm emission on Luminescence Spectrometer LS50B (Perkin-Elmer).

CMV promoter = test: Control CMV promoter transcription (CMV-EGFP) in 293T cells; details: 10 µM
HIV-1 NL4-3 = test: HIV-1 replication in MT4 cells, reverse transcriptase activity; details: HIV-1 NL4-3, tested at 2, 10, 25 µM, RT activity over 8 days

For `COCCNC(=O)COC(=O)c1c2c(nc3ccccc13)/C(=C/c1ccc(O)cc1)CCC2` [1H4], which “Percent of inhibition of HIV-1 transcription in CEM GFP cells infected with Ad-Tat” value ([1]; 25 µM of each compound, 48 hours) is on record?
The value was 96%.

What about the IC50 ([1]; Human immunodeficiency virus 1, CEM-GFP, 24 h, read-out: Inhibition of HIV-1 Transcription in CEM-GFP cells (IC50, μM)) of the same compound?
The IC50 was 10 µM.

What about the IC50 [2] of the same compound?
The IC50 was 5 µM.

What about the “Association of Tat with CDK9/cyclin T1” value [3] of the same compound?
The value was “no effect on the association of Tat with CDK9/cyclin T1”.

And the “PP1α co-precipitation with Flag-Tat” value [3]?
The value was “reduced the amount of PP1α-EGFP that co-precipitated with Tat”.

And the “Interaction of PP1 with PNUTS and NIPP1” value [4]?
The value was “without any effect on the interaction of PP1 with PNUTS or NIPP1”.

And the “Tat association with PP1 (microcystin precipitation)” value [4]?
The value was “Tat association was reduced”.

What about the “Effect on cellular proteome” value (293T cells) of the same compound?
The value was “did not significantly change the cellular proteome”.

What about the “Nuclear PP1α-EGFP fluorescence in fractionated cells” value (PP1α; 293T cells, absence and presence of Tat, versus untreated or 1G3) of the same compound?
Its value is “significant decrease of nuclear PP1α-EGFP”.

What about the “Nuclear localization of PP1α in presence of Tat (fluorescence microscopy)” value (PP1α; HeLa cells, Flag-Tat and PP1α-EGFP, 10 µM, 18 hours) of the same compound?
The value was “diminished nuclear localization of PP1α”.

What about the “Effect on transcription from control CMV promoter” value (CMV promoter) of the same compound?
Its value is “did not inhibit transcription from a control CMV promoter”.

And the “Concentration from which HIV-1 replication is inhibited” value (HIV-1 NL4-3)?
Its value is at least 10 µM.
